These results are taken from publication PMC2362940 (British Journal of Cancer, 1999).

“Also recorded” adds a separate entry of the source. Read-outs that look alike come from different tables or passages of the source.

One series deals with MCF-7/ADR cells. As to the kind of experiment: MTT cytotoxicity of taxol with P-gp inhibitors at 10% or 50% FCS in MCF-7/ADR cells. The class given is cell-based, human. Conditions: for Resistance of MCF-7/ADR cells: MA Russell and DR Ferry, unpublished data; for EC50: Homo sapiens, NCI/ADR-RES.
Series [1] deals with MES-Dx5 cells. As to the kind of experiment: Reversal of MES-Dx5 resistance to cytotoxics by P-gp inhibitor (MTT assay, % maximal shift). The class given is cell-based, human. As to conditions: for EC50: Homo sapiens, MES-Dx5, MTT 72 h. For orientation: Tetrazolium dyes change colour on reduction, which living cells bring about.
The test system of series [2] is P-gp. As to the kind of experiment: Radiolabelled drug accumulation assay in MES-Dx5 cells. Format: cell-based, human. As to conditions: human, MES-Dx5 cells (P-gp-expressing); read-out: EC50 for reversal of the accumulation deficit, range over all three radiolabelled cytotoxics.
For series [3], the system named is MES-Dx5 cells. The description is as above. As to conditions: for EC50: Homo sapiens, MES-Dx5, 4 h; for Accumulation deficit of MES-Dx5 relative to parental MES-SA cells: steady state. The class given is cell-based, human.
The subject of series [4] is MES-Dx5 cells. As to the kind of experiment: MTT dye-based cytotoxicity assay, 72-h exposure, P-gp-expressing MES-Dx5 cells. Format: cell-based, human. As to conditions: for EC50: Homo sapiens, read-out: EC50 of cytotoxic drug in MES-Dx5 cells; for EC50 / Resistance factor (RF) of MES-Dx5 relative to MES-SA cells: MTT.
For series [5], the system named is P388/Dox leukaemia or C26 colon carcinoma. Details: method as in Hyafil et al, 1993. As to conditions: single dose of GF120918; ref Hyafil et al, 1993; cited from earlier work.
Series [6] relates to MES-SA cells. As to the kind of experiment: Radiolabelled drug accumulation assay in MES-SA cells. Format: cell-based, human. As to conditions: data not shown.
The next series concerns COR-L23 R. As to the kind of experiment: Sensitization of MRP1-expressing COR-L23 R cells to doxorubicin. Conditions: 1 M (µM) GF120918, unpublished data. Format: cell-based.
Series [7] has as its system P-gp. Details: method as in Hyafil et al, 1993. As to conditions: ref Hyafil et al, 1993; cited from earlier work.
In series [8] the target is P-gp (Homo sapiens, UniProt P08183). As to the kind of experiment: in vitro. As to conditions: membrane preparations of MES-Dx5 cells (P-gp-expressing), MES-Dx5 membranes.
Sequence of P-gp (P08183 whole entry): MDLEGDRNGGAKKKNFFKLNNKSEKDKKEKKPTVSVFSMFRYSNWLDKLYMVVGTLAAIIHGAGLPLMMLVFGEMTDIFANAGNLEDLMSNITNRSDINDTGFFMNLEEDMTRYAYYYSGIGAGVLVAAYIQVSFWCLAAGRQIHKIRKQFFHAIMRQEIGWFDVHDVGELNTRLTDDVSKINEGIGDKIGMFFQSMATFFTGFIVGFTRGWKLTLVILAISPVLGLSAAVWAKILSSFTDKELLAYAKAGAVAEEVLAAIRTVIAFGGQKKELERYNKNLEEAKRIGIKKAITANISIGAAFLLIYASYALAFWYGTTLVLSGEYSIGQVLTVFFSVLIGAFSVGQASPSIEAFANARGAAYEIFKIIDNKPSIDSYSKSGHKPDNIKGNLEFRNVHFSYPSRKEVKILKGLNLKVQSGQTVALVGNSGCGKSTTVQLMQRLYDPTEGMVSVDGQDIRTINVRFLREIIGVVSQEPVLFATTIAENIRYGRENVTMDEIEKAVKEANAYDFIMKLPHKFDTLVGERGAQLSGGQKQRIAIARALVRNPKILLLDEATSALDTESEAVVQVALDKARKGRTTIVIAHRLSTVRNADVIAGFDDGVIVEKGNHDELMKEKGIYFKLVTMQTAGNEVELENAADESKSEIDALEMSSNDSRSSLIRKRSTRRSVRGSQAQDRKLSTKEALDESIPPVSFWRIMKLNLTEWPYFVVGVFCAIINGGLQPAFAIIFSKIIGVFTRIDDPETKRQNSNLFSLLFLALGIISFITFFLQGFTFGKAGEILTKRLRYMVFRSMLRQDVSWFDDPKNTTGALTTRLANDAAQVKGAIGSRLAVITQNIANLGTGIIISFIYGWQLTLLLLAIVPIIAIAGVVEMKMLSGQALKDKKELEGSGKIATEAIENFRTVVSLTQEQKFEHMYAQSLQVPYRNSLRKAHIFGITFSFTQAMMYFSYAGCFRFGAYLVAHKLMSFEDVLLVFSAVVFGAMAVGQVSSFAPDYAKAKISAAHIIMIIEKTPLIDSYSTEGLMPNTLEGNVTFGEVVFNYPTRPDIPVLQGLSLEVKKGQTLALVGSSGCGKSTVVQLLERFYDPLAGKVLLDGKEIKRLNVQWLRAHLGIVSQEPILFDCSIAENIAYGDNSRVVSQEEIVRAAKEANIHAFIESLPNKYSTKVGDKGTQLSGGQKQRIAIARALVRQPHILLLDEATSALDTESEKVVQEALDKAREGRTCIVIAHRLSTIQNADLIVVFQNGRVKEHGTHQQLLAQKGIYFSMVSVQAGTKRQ
For series [9], the target named is T1, P-gp in MES-Dx5 membranes (Homo sapiens, UniProt P08183).
T1 sequence (P08183 whole entry): as above
Series [10] addresses T1, P-gp in MES-Dx5 membranes. As to the kind of experiment: biochemical.
Series [11] deals with MES-SA cells. As to the kind of experiment: MTT dye-based cytotoxicity assay, 72-h exposure, parental MES-SA cells. Conditions: Homo sapiens, read-out: EC50 of cytotoxic drug in MES-SA cells.
The test system of series [12] is MCF-7 WT cells.
Series [13] concerns MCF-7 WT cells. As to the kind of experiment: cells. Conditions: Homo sapiens, MCF7, 72 h.
Setting [14] is: inhibition of [3H]-vinblastine binding, single representative experiment, Figure 7B, 5 nM [3H]-vinblastine.

Turning to `CO[C@@H]1[C@H](N(C)C(=O)c2ccccc2)C[C@H]2O[C@]1(C)n1c3ccccc3c3c4c(c5c6ccccc6n2c5c31)C(=O)NC4` [CGP 41251], the “Ratio of EC50s (50% FCS vs 10% FCS) in presence of P-gp inhibitor” value with MCF-7/ADR cells (MCF-7/ADR, taxol, MTT 72 h) stood at 30 fold.
On to `COC(=O)C1=C(C)NC(C)=C(C(=O)OCCCN2CCC(c3ccccc3)(c3ccccc3)CC2)[C@@H]1c1cccc([N+](=O)[O-])c1` [Dexniguldipine], for which the “Ratio of EC50s (50% FCS vs 10% FCS) in presence of P-gp inhibitor” value in the series with MCF-7/ADR cells was found to be 37 fold.
For the molecule `COc1cc2c(cc1OC)CN(CCc1ccc(NC(=O)c3cccc4c(=O)c5cccc(OC)c5[nH]c34)cc1)CC2` [GF120918], the EC50 in the series with MES-Dx5 cells [1] (read-out: EC50 of GF120918 to reverse resistance (shifts sensitivity by 50%) to doxorubicin, cytotoxic doxorubicin) is 21 ± 6 nM; with MES-Dx5 cells [1] (read-out: EC50 of GF120918 to reverse resistance (shifts sensitivity by 50%) to etoposide, cytotoxic etoposide), 7 ± 2 nM; with MES-Dx5 cells [1] (read-out: EC50 of GF120918 to reverse resistance (shifts sensitivity by 50%) to taxol, cytotoxic taxol), 91 ± 23 nM; in the series on MES-Dx5 cells [1] (read-out: EC50 of GF120918 to reverse resistance (shifts sensitivity by 50%) to taxotere, cytotoxic taxotere) it was 57 ± 14 nM; with MES-Dx5 cells [1] (read-out: EC50 of GF120918 to reverse resistance (shifts sensitivity by 50%) to vinblastine, cytotoxic vinblastine), 19 ± 3 nM; in the series with P-gp [2], […]. The EC50 in the series with MES-Dx5 cells [3] (read-out: [GF120918] reverses accumulation-deficit by 50%, [3H]-taxol) was found to be […]; in the series on MES-Dx5 cells [3] (read-out: [GF120918] reverses accumulation-deficit by 50%, [3H]-vinblastine), 48 nM; in the series with MES-Dx5 cells [3] (read-out: [GF120918] reverses accumulation-deficit by 50%, [14C]-doxorubicin), […]. Also, the “Lowest concentration exhibiting a measurable reversal of resistance” value in the series on MES-Dx5 cells [1] (MES-Dx5, MTT assay) was […]. Also, in the series with MES-Dx5 cells [1] (to level of parental MES-SA cells), the “Extent of reversal of MES-Dx5 resistance, all tested cytotoxic drugs” value is reported as “reversed resistance completely; also recorded: fully reverse resistance”. Also, the “Cytotoxic effect of GF120918 alone” value in the series on MES-Dx5 cells [4] (MTT assay) is listed as “did not produce a cytotoxic effect”. The “Sensitization of xenograft-bearing mice to doxorubicin” value in [5] was “sensitized mice”. The “Effect on cellular content of radiolabelled cytotoxics in sensitive MES-SA cells” value with MES-SA cells [6] is “did not increase”. In addition, the “Sensitization of COR-L23 R (MRP1, not P-gp) to doxorubicin” value with COR-L23 R is reported as “not sensitized”. Moreover, the “Concentration at which activity was consistently achieved in vitro” value with P-gp [7] is reported as […].
`C/C=C/C[C@@H](C)C(=O)[C@H]1C(=O)N[C@@H](C(C)C)C(=O)N(C)CC(=O)N(C)[C@@H](CC(C)C)C(=O)N[C@@H](C(C)C)C(=O)N(C)[C@@H](CC(C)C)C(=O)N[C@@H](C)C(=O)N[C@H](C)C(=O)N(C)[C@@H](CC(C)C)C(=O)N(C)[C@@H](CC(C)C)C(=O)N(C)[C@@H](C(C)C)C(=O)N1C` [PSC 833]: the “Ratio of EC50s (50% FCS vs 10% FCS) in presence of P-gp inhibitor” value with MCF-7/ADR cells (MCF-7/ADR, taxol, MTT 72 h) came out at 19 fold.
`CC(=O)O[C@H]1C(=O)[C@@]2(C)[C@H]([C@H](OC(=O)c3ccccc3)[C@]3(O)C[C@H](OC(=O)[C@H](O)[C@@H](NC(=O)c4ccccc4)c4ccccc4)C(C)=C1C3(C)C)[C@]1(OC(C)=O)CO[C@@H]1C[C@@H]2O` [[3 H]-taxol]: the “Accumulation deficit of MES-Dx5 relative to parental MES-SA cells” value with MES-Dx5 cells [3] was found to be 20%.
For the molecule `CC[C@]1(O)C[C@@H]2CN(CCc3c([nH]c4ccccc34)[C@@](C(=O)OC)(c3cc4c(cc3OC)N(C)[C@H]3[C@@](O)(C(=O)OC)[C@H](OC(C)=O)[C@]5(CC)C=CCN6CC[C@]43[C@@H]65)C2)C1` [[3 H]-vinblastine], binding at P-gp [8] (KD of [3H]-vinblastine binding, saturation analysis (mean)) was put at a Kd of 7.8 ± 1.4 nM. In [9] (Figure 6, 1 mM ATP and 3 mM MgCl2, single experiment), the “Bmax of [3H]-vinblastine binding in the presence of ATP and MgCl2” value stood at 10.9 pmol mg-1 protein. In addition, the “Bmax of [3H]-vinblastine binding, single representative experiment” value in series [9] (Figure 6, control without ATP/MgCl2) amounted to 8.6 pmol mg-1 protein. The “Bmax of [3H]-vinblastine binding (mean)” value is listed as 5.2 pmol mg-1 protein in series [9] (MES-Dx5 membranes) and 5.2 ± 1.6 pmol mg-1 protein in [9] (MES-Dx5 membranes, listed as [^3H]-vinblastine).
As for `COc1cccc2c1C(=O)c1c(O)c3c(c(O)c1C2=O)C[C@@](O)(C(=O)CO)C[C@@H]3O[C@H]1C[C@H](N)[C@H](O)[C@H](C)O1` [[14 C]-doxorubicin], the “Accumulation deficit of MES-Dx5 relative to parental MES-SA cells” value in the series with MES-Dx5 cells [3] came out at 20%.
Regarding `COc1cccc2c1C(=O)c1c(O)c3c(c(O)c1C2=O)C[C@@](O)(C(=O)CO)C[C@@H]3O[C@H]1C[C@H](N)[C@H](O)[C@H](C)O1` [doxorubicin], the inhibition constant Ki (in general, the dissociation constant of the complex between target and ligand, obtained from inhibition or displacement) in [10] (inhibition of [3H]-vinblastine binding to P-gp (mean), MES-Dx5 membranes, 21C) stood at 6940 ± 2100 nM; in [10] (setting [14]), 112000 nM. Besides, the EC50 with MES-Dx5 cells [4] is 534 nM; in the series with MES-SA cells [11], 58 nM. In the series with MCF-7/ADR cells, the “Resistance of MCF-7/ADR cells” value stood at 200 fold.
For `COc1cc([C@@H]2c3cc4c(cc3[C@@H](O[C@@H]3O[C@@H]5CO[C@@H](C)O[C@H]5[C@H](O)[C@H]3O)[C@H]3COC(=O)[C@H]23)OCO4)cc(OC)c1O` [etoposide], the EC50 in the series with MES-Dx5 cells [4] was 6850 nM; with MES-SA cells [11] it was 3000 nM.
In the case of `CC(=O)O[C@H]1C(=O)[C@@]2(C)[C@H]([C@H](OC(=O)c3ccccc3)[C@]3(O)C[C@H](OC(=O)[C@H](O)[C@@H](NC(=O)c4ccccc4)c4ccccc4)C(C)=C1C3(C)C)[C@]1(OC(C)=O)CO[C@@H]1C[C@@H]2O` [taxol], at P-gp [8] (probe [3H]-vinblastine, Ki, inhibition of [3H]-vinblastine binding to P-gp (mean), 3 h, 21C), the Ki at 3 h was 400 ± 140 nM. Also, the “Ratio of EC50s (50% FCS vs 10% FCS), taxol without inhibitor” value in the series on MCF-7 WT cells [12] was 0.84. In [10] (setting [14]), this molecule displayed a Ki of 96 nM. The EC50 in the series on MES-Dx5 cells [4] is 470 nM; with MCF-7/ADR cells (read-out: EC50 of taxol without inhibitor, 10% FCS, MCF-7/ADR, MTT 72 h), 8500 nM; in the series on MCF-7/ADR cells (read-out: EC50 of taxol without inhibitor, 50% FCS, MCF-7/ADR, MTT 72 h), 4600 nM; with MES-SA cells [11], 5 nM; with MCF-7 WT cells [13] (read-out: EC50 of taxol without inhibitor, 10% FCS) it was 6 nM; with MCF-7 WT cells [13] (read-out: EC50 of taxol without inhibitor, 50% FCS), 5 nM. For the same molecule, the “Resistance factor (RF) of MES-Dx5 relative to MES-SA cells” value in the series on MES-Dx5 cells [4] was 94 fold. For the same molecule, in series [9] (MES-Dx5 membranes, allosteric inhibitor), the “Maximal displacement of [3H]-vinblastine bound to P-gp” value is 40%. Also, the “Resistance of MCF-7/ADR cells” value in the series with MCF-7/ADR cells came out at 1000 fold.
As to `CC(=O)O[C@@]12CO[C@@H]1C[C@H](O)[C@@]1(C)C(=O)[C@H](O)C3=C(C)[C@@H](OC(=O)[C@H](O)[C@@H](NC(=O)OC(C)(C)C)c4ccccc4)C[C@@](O)([C@@H](OC(=O)c4ccccc4)[C@H]21)C3(C)C` [taxotere], in the series on MES-Dx5 cells [4], the EC50 was determined as 93 nM and the “Resistance factor (RF) of MES-Dx5 relative to MES-SA cells” value was found to be 19 fold. For the same molecule, the EC50 in the series with MES-SA cells [11] was determined as 5 nM.
For `CC[C@]1(O)C[C@@H]2CN(CCc3c([nH]c4ccccc34)[C@@](C(=O)OC)(c3cc4c(cc3OC)N(C)[C@H]3[C@@](O)(C(=O)OC)[C@H](OC(C)=O)[C@]5(CC)C=CCN6CC[C@]43[C@@H]65)C2)C1` [vinblastine], the figures for the EC50 with MES-Dx5 cells [4] and in the series on MES-SA cells [11] were 30 nM and 3 nM, respectively.
